The values below come from patent US20090093460A1, “Compositions” (AstraZeneca AB, priority 2003, published 2009).

Where two headings read alike, the source gives them in different places.

In general, IC50 refers to the concentration at which inhibition is half-maximal. The term inhibition denotes the relative decrease from the control value, in per cent.

Experiment [1] addresses T1, 5-HT2A receptors (Homo sapiens, UniProt P28223).
T1 construct: from tissue; host or cells: brain of living primate subjects (PET)
As to the kind of experiment: PET scans of primate subjects, 5-HT2A occupancy. The experiment is classed as in vivo. The note with it: preliminary PET scans. An excerpt: The compound of Formula I is a dibenzothiazepine that has shown antidopaminergic activity.

Experiment [2] deals with rats. In words: D-amphetamine locomotor activity test. The experiment is classed as in vivo, rat. To be noted: freebase, s.c. The text has this:
(§1) The methods and procedures used can be found in Warawa et al., J. Med. Chem., 2001, 44 (3), 372-389, and are incorporated herein by reference.

The test system of experiment [3] is mice. As to the kind of experiment: Standard apomorphine climbing mouse assay. The experiment is classed as in vivo. To be noted: p.o.
From the text: as §1

In experiment [4] the test system is rats. As to the kind of experiment: Geller-Seifter conflict test. The experiment is classed as in vivo, rat. Here is the method: Anxiolytic activity of 11-piperazin-1-yldibenzo[b,f][1,4]thiazepine was tested in rats according to the Geller-Seifter conflict test. Efficacy results are presented in Table 1 and plasma levels in satellite exposure animals at 0.25 hours after administration are provided in Table 2.
Subjects: 30 Male Long Evans rats were used. Subjects weighed 350-450 g at the time of testing, and were food restricted to 85% of free feeding weight by post session feeding with approximately 15 g of standard rat chow per day. All animals had free access to water except during experimental testing. Subjects were individually housed throughout the course of the experiment under a 12 hour light/dark cycle.
Apparatus: Standard 2-lever operant chambers were used (Med Associates). The chambers were fitted with two retractable response levers and a stimulus lamp over each of the 2 levers. A pellet food dispenser delivered 45 mg food pellets, (Bio Serv) to a cup located inside of the chamber below and between the 2 response levers. A lamp at the top and back of the chamber served as houselights. […] All events in the chambers were controlled and monitored by a microprocessor. […]
Several doses were tested on a given day in different subjects. […] The dependent variables recorded were the rate of responding in unpunished and punished components (total responses/total time under the component), the number of shocks delivered. […]

Experiment [5] addresses Adrenergic α2* Non-Selective. As to the kind of experiment: Radioligand binding 203900 Adrenergic α2* Non-Selective. The arrangement: species or system rat. The text has this:
(§2) Receptor binding methods, α-adrenergic nonselective, are provided below.

Experiment [6] addresses Adrenergic α1* Non-Selective. In words: Radioligand binding 203500 Adrenergic α1* Non-Selective. Also noted: species or system rat.
From the text: as §2

For experiment [7], the target named is T2, Adrenergic α1A (Rattus norvegicus, UniProt P43140).
T2 construct: 203100
T2 sequence (P43140 1-466): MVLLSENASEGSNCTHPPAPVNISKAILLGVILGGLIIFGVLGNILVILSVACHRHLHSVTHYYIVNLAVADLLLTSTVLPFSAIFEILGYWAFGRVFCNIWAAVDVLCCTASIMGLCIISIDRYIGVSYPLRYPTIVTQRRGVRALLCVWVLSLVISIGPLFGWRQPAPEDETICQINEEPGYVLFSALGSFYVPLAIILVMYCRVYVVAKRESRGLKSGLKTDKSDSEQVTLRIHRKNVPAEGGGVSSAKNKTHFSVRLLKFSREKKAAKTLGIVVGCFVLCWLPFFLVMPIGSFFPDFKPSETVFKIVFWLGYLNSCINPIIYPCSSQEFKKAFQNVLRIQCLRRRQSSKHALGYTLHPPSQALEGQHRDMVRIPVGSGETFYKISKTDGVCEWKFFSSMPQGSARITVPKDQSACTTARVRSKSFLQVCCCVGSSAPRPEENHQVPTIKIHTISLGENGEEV
As to the kind of experiment: Radioligand binding 203100 Adrenergic α1A. The text has this: Receptor binding methods, (α-adrenergic subtype specific, are provided below.

T1 sequence (P28223 whole entry): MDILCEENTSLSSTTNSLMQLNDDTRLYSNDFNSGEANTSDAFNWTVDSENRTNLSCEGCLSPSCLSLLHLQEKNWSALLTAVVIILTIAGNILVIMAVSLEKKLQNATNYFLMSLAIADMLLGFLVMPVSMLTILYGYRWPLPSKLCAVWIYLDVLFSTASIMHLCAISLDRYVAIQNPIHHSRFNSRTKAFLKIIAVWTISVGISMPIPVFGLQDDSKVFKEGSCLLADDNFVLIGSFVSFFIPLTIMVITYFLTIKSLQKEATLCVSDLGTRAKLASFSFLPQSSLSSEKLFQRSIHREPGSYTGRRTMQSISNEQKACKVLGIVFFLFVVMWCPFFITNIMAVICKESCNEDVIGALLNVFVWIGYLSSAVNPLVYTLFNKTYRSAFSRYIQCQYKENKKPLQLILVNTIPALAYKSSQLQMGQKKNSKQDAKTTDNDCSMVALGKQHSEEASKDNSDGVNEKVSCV

On to `c1ccc2c(c1)N=C(N1CCNCC1)c1ccccc1S2` [11-piperazin-1-yldibenzo[b,f][1,4]thiazepine], for which the “receptor occupancy by PET” value in experiment [1] is listed as “occupies”. Further, the “in vivo antipsychotic activity” value is listed as “not found to be efficacious” in experiment [2], “not shown to be efficacious” in experiment [2] (listed as compound of Formula I) and “not shown to be efficacious” in experiment [3]. In addition, the “rates of responding in the punished component” value in experiment [4] (doses of 2, 5, and 10 mg/kg s.c.) was “Significant increases”. The Inactive dose in experiment [4] (rats, 15 minute pre-treatment) is reported as 1 mg/kg s.c. Also, the IC50 in experiment [5] came out at 1410 nM; in experiment [6], 69.3 nM; in experiment [7], 268 ± 12 nM. The Ki in experiment [5] was 1290 nM; in experiment [6], 37.2 nM; in experiment [7] (read-out: ki), 108 ± 5 nM; in experiment [7] (α1A, read-out: Affinity) it was 108 nM. Moreover, the “% INH.” value in experiment [5] (10 μM) was found to be 73%; in experiment [6] (0.1 μM), 61%. In experiment [7], this molecule registered a n of 1.03 ± 0.089. In experiment [7] (0.3 μM), this molecule had an inhibition at 0.3 µM of 51%.
